Patent publication US20260091086A1, “POLYPEPTIDE COMBINATIONS AND USES THEREOF” (MEDIMMUNE LIMITED, priority 2024, published 2026)
Numbered stars: 1 amine (or outer) side, 2 acyl side, 3 side chain; on linkers, the order of the positions; unused ones are H or OH. Bridge positions count the residues as written; N and C are the ends. Square brackets hold non-standard residues; d marks the D form. Side chains are listed from the residue outwards. Ends that are not written are not given here. * marks the point of attachment. C18 diacid = O=C(O)CCCCCCCCCCCCCCCCC(=O)*; γGlu = O=C(O)[C@H](CCC(=O)[*:2])N[*:1]; αMeF = C[C@](N)(Cc1ccccc1)C(=O)O

What was measured:
[1] = test system: DIO male pair-housed rats; experiment: Example 3 additional study: 28-day body weight, food intake and organ weights in DIO rats; assay type: in vivo, rat; details: 28 days SC daily
Description: Study design: DIO male pair-housed rats fed a 32.5% high-fat diet (D12266B) for 7 weeks reached a mean body weight (BW) of ˜595 g. Rats were dosed SC daily for 28 days with vehicle (Vh), GLP-1/GCG dual agonist (1.5 or 5 nmol/kg), LAA (2.5 or 7.5 nmol/kg), or combination (1.5+2.5 nmol/kg, 1.5+7.5 nmol/kg, 5+2.5 nmol/kg, or 5+7.5 nmol/kg, respectively). Food intake (FI) and BW were measured daily. In chow fed lean rats, gastric emptying (GE) was measured via X-ray fluoroscopic quantification following SC injections of Vh, GLP-1/GCG dual agonist at 1, 3, or 10 nmol/kg or LAA at 1, 3, or 10 nmol/kg. In a subsequent acute GE study, lean rats received a single dose of Vh, GLP-1/GCG dual agonist (2 nmol/kg), LAA (2 nmol/kg) or GLP-1/GCG dual agonist+LAA combination (2+2 nmol/kg). In this experiment, the LAA was that of SEQ ID NO: 11, and the GLP-1/GCG dual-agonist was cotadutide.

Wistar Han rats = experiment: Example 4: 3-month subcutaneous study, body weight; assay type: in vivo, rat; details: for Body Weight Comparison, Day 92 vs. Control Group 1 Day 92 / Body Weight Gain (Day 92 vs Day −1) / Mean Body Weight at Day 92: dose levels 2000/0, Group 4
Description: Study Design: Male (9-11 weeks of age) and female (10-11 weeks of age) Wistar Han rats were SC administered with Vehicle/Vehicle (group 1—for LAA of SEQ ID NO: 11 and GLP-1/GCG of SEQ ID NO: 35), LAA of SEQ ID NO: 11 and GLP-1/GCG of SEQ ID NO: 35 (group 2—500 and 5 μg/kg respectively), LAA of SEQ ID NO: 11 and GLP-1/GCG of SEQ ID NO: 35 (group 3—2000 and 5 μg/kg respectively), SEQ ID NO: 11 and Vehicle for SEQ ID NO: 35 (group 4—2000 μg/kg and 0 μg/kg respectively), or Vehicle for SEQ ID NO: 11 and SEQ ID NO: 35 (group 5—0 and 5 μg/kg respectively) daily for 91 days. Dosing for LAA of SEQ ID NO: 11 was dose escalated with group 2 receiving 250 μg/kg from day 1-5 and 500 μg/kg for duration of study, and groups 3 and 4 receiving 250 μg/kg SEQ ID NO: 11 from day 1-5, 500 μg/kg SEQ ID NO: 11 from days 7-13 and 2000 μg/kg for duration of study. There was a n=10/group per gender.

[2] = target: T1, rat amylin receptor (calcitonin receptor plus RAMP3) (Rattus norvegicus, UniProt P32214+Q9JJ73); experiment: Target engagement estimate (unbound Cmax / unbound in vitro potency), amylin receptor; details: LAA 30 nmol/kg vs DACRA 10 nmol/kg
T1 construct: expressed in transfected cells; host or cells: HEK293
T1 sequence (P32214 25-516): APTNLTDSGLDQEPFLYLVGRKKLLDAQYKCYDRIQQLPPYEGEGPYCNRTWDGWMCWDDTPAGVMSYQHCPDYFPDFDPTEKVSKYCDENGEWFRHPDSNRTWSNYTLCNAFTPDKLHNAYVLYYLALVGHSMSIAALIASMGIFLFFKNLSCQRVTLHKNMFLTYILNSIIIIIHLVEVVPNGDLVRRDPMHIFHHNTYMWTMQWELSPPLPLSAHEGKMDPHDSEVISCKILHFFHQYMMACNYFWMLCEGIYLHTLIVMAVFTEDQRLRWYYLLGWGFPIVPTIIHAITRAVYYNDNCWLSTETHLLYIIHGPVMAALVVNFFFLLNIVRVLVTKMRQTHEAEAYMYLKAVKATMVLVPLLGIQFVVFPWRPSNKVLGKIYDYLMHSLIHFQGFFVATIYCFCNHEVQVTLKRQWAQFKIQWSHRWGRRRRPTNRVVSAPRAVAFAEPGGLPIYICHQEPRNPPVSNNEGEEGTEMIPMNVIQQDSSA
T1 sequence (Q9JJ73 23-147 partner): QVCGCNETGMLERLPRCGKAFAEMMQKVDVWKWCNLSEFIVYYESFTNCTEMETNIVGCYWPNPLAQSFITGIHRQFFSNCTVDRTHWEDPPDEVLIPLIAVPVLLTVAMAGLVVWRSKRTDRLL
Description: Target engagement was estimated in the following way for each compound. The maximum concentration (Cmax) after subcutaneous injection was measured in separate rat pharmacokinetic studies and was dose-adjusted to the tested dose levels when appropriate, assuming dose linearity. Plasma protein binding was determined in vitro using 3B Pharmaceutical's Escalate Equilibrium Shift Assay or an in-house Surface Plasmon Resonance (SPR) assay. Peptide in vitro potency was determined via HTRF CAMP accumulation assay using HEK293 cells recombinantly expressing the rat calcitonin receptor or rat amylin receptor (calcitonin receptor plus RAMP3) in saline buffer containing 0.1% bovine serum albumin. The in vitro potencies (IC50s) for amylin and calcitonin were adjusted to unbound values by taking into account the albumin concentration in the assay and fraction unbound data, according to an established method (Wan H and Bergström F (2007), High Throughput Screening of Drug-Protein Binding in Drug Discovery, Journal of Liquid Chromatography & Related Technologies, 30:5, 681-700; doi: 10.1080/10826070701190989). Finally, the target engagement was calculated as the unbound Cmax divided by the unbound IC50, both for amylin and calcitonin. […] Uncertainty of parameter estimates was determined by bootstrapping, sampling single measurements randomly with replacement within each experiment (N=500). […]

K(γE-γE-C18diacid)[CNTATC]ATQRLANFLRHSSNN(αMePhe)GPILPPTEVGSNTY-amide (K([γGlu-γGlu-C18 diacid])CNTATCATQRLANFLRHSSNN[αMeF]GPILPPTEVGSNTY-NH2; disulfide 2-7) [LAA]
Vh corrected BW change (BW gain) ([1]; LAA 2.5 nmol/kg): −9.4% | Vh corrected BW change (BW gain) ([1]; LAA 7.5 nmol/kg): −13.7% | Cumulative FI normalized to Vh ([1]; monotherapy and combination groups): decreased in a dose-dependent manner | Body weight at study day 92 vs Vehicle (Wistar Han rats; both male and female, groups 2-5): significantly lower | Body Weight Comparison, Day 92 vs. Control Group 1 Day 92 (Wistar Han rats; female): 89% | Body Weight Gain (Day 92 vs Day −1) (Wistar Han rats; female): 110% | Mean Body Weight at Day 92 (Wistar Han rats; female): 222.1 grams | Body Weight Comparison, Day 92 vs. Control Group 1 Day 92 (Wistar Han rats; male): 79% | Body Weight Gain (Day 92 vs Day −1) (Wistar Han rats; male): 119% | Mean Body Weight at Day 92 (Wistar Han rats; male): 319.2 grams | amylin receptor engagement, fold more than DACRA [2]: ~28 fold
